Here are results for 5 compounds from article PMC8983459 (Molecular cancer therapeutics, 2022).

For assay [1], the system named is 22Rv1 tumors. The conditions noted are these: cited from earlier work.
Assay [2] deals with AR nuclear localization. The conditions noted are these: cited from earlier work.
For assay [3], the system named is AR. Briefly: Western blot with nucleocytoplasmic fractionation, AR level. The format is cell-based, human. The conditions noted are these: 10 nM, 20 h, C4-2, LN95, and 22Rv1.
For assay [4], the system named is PSA expression in C4-2 cells (AR activity). The experiment in a line: PSA ELISA of conditioned medium, C4-2 cells. The format is cell-based, human. The conditions noted are these: C4-2, 48 h.
Assay [5] has as its system 22Rv1 xenograft tumor. The experiment in a line: 22Rv1 xenograft tumor study in castrated mice. The conditions noted are these: 10 mg/kg i.p. every day; (+)-JJ-74-138 compared to enzalutamide p < 0.05.
Assay [6] deals with PSA expression in 22Rv1 cells (AR activity). Briefly: PSA ELISA of conditioned medium, 22Rv1 cells. It is filed as cell-based, human.
Assay [7] deals with PSA expression in LN95 cells (AR activity). Briefly: PSA ELISA of conditioned medium, LN95 cells. The format is cell-based, human.
The subject of assay [8] is DU145 cells. The experiment in a line: Cell proliferation assay, DU145. The conditions noted are these: DU145, 10 μM, repeat experiment (Supplemental Fig. 2). The format is cell-based, human.
Assay [9] relates to PC-3 cells. The experiment in a line: Cell proliferation assay, PC-3. The conditions noted are these: PC-3, 10 μM, repeat experiment (Supplemental Fig. 2). It is filed as cell-based, human.
Where [10] appears, read: DHT 0-1000 nM with 10 μM (+)-JJ-74-138 or 1 or 10 μM enzalutamide.
Where [11] appears, read: 22Rv1, 48 h, DHT 0-1000 nM with 10 μM compound.
Where [12] appears, read: LN95, 48 h, DHT 0-1000 nM with 10 μM compound.

As for `CC(C)(c1ccc(OCC(O)CO)cc1)c1ccc(OCC(O)CCl)cc1` (stereo not drawn) [EPI-001], the “sensitivity of 22Rv1 tumors” value in [1] is “resistant”.

In the case of `O=C(CSCc1cnoc1)N1CCN(c2ccccc2)CC1` [IMTPPE, 2-[(isoxazol-4-ylmethyl)thio]-1-(4-phenylpiperazin-1-yl)ethanone], the “androgen-independent AR nuclear localization” value in [2] is on record as “inhibited androgen-independent AR nuclear localization”.

`C[C@]1(O)CC[C@H]2[C@@H]3CCC4=CC(=O)CCC4=C3C=C[C@@]21C` [R1881]: the “amount of total AR and nuclear AR level” value in assay [3] is given as “increased the amount of total AR, particularly the nuclear AR level”.

`CNC(=O)c1ccc(N2C(=S)N(c3ccc(C#N)c(C(F)(F)F)c3)C(=O)C2(C)C)cc1F` [enzalutamide]: the “increase of EC50 of DHT induction of PSA” value in assay [4] (setting [10]), in [6] (setting [11]) and in assay [7] (setting [12]) was ~ 10 fold throughout. Further, the “maximal PSA induction by high DHT dosages” value in assay [4] (setting [10]), in assay [6] (setting [11]) and in [7] (setting [12]) was “alleviated by high doses of DHT” throughout. Moreover, the inhibition at 10 µM was approximately 70% in [4] (Homo sapiens, read-out: inhibition of PSA levels) and approximately 20% in assay [7] (Homo sapiens, 48 h, read-out: inhibition of PSA levels). In addition, in [5], the “survival (Kaplan-Meier, ad hoc analysis)” value is reported as “did not differ from the vehicle control”. Besides, the “DHT-stimulated PSA expression” value is recorded as “effectively inhibit DHT-stimulated PSA expression” in assay [6] (22Rv1, 10 μM, with DHT (Fig. 3A)) and “effectively inhibit DHT-stimulated PSA expression” in assay [7] (LN95, 10 μM, with DHT (Fig. 3A)). The cell growth entry in [8] and in assay [9] was “minimal inhibitory effect” in each case.

For `CC/C(=C(\c1ccccc1)c1ccc(OCCN(C)C)cc1)c1ccccc1` [tamoxifen], the PSA expression entry in [7] (LN95 cells (Supplemental Fig. 3)) is recorded as “did not affect PSA expression”.
